Assay results taken from patent publication US10975119B2, “Selective cysteine protease inhibitors and uses thereof” (Genesis Technologies Limited, priority 2011, dated 2021).
Where two headings read alike, the source gives them in different places.

Tests used:
Assay type in all cases: biochemical
Caspase-6 = molecular target: T1, Caspase-6 (Homo sapiens, UniProt P55212); assay: Caspase-6 inhibitor screening assay (BioVision kit, VEID-AFC); settings: for inhibition at 10 µM: read-out: % Inhibition at 10 uM Casp6; for inhibition at 100 µM: read-out: % Inhibition at 100 uM Casp6
T1 construct: mixing the compounds with the respective active caspases; purchased BioVision K156-100
T1 sequence (P55212 24-179 limits assumed): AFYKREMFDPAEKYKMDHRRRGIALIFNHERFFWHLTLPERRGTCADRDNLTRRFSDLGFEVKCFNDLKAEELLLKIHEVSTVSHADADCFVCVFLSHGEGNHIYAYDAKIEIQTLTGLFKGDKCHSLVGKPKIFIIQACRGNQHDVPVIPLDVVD
T1 sequence (P55212 194-293 limits assumed): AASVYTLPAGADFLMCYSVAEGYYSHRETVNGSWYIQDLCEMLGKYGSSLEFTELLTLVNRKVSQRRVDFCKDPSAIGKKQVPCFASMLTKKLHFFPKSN
Method: (§1) The efficacy of an array of compounds as an inhibitor of the activity of Caspases 1 through 10 were assessed by using the respective Caspase Inhibitor Drug Screening Kits (Caspase-1 Catalog #: K151-100, Caspase-2 Catalog #: K152-100, Caspase-3 Catalog #: K153-100, Caspase-4 Catalog #: K154-100, Caspase-5 Catalog #: K155-100, Caspase-6 Catalog #: K156-100, Caspase-7 Catalog #: K157-100, Caspase-8 Catalog #: K158-100, Caspase-9 Catalog #: K159-100, Caspase-10 Catalog #: K160-100, BioVision) following the instructions of the manufacturer. […] Active caspases cleaved their respective synthetic substrates to release free AFC, which was then quantified by fluorometry.
(§2) Briefly, the compounds were first tested at 2 concentrations (10 uM and 100 uM final) to determine if there is a hit. […] Each condition was tested in duplicates. […] For some samples, a smaller range of concentrations was tested depending on the % Inhibition results at 10 uM and 100 uM. Results were summarized in Tables 2, 3, and 4 herein after. Table 2 represents the IC50 values (uM) of the test compounds as inhibitors of the activity of the various caspases.
(§3) (*) RFU (no inhibitor control)—RFU (compound at a specific concentration)
(§4) RFU (no inhibitor control)

Caspase-5 = molecular target: T2, Caspase-5 (Homo sapiens, UniProt P51878); assay: Caspase-5 inhibitor screening assay (BioVision kit, WEHD-AFC); settings: for inhibition at 10 µM: read-out: % Inhibition at 10 uM Casp5; for inhibition at 100 µM: read-out: % Inhibition at 100 uM Casp5
T2 construct: mixing the compounds with the respective active caspases; purchased BioVision K155-100
T2 sequence (P51878 137-327 limits assumed): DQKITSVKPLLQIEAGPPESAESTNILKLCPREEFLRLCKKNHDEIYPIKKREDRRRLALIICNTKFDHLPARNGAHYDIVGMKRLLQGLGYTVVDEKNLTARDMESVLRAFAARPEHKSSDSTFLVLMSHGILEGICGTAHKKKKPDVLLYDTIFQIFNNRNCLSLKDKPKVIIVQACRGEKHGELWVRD
T2 sequence (P51878 347-434 limits assumed): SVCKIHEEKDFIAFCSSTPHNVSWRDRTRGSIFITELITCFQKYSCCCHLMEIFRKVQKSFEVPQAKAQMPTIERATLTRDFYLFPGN
Method: as §1, §2, §3, §4

Caspase-4 = molecular target: T3, Caspase-4 (Homo sapiens, UniProt P49662); assay: Caspase-4 inhibitor screening assay (BioVision kit, LEVD-AFC); settings: for inhibition at 10 µM: read-out: % Inhibition at 10 uM Casp4; for inhibition at 100 µM: read-out: % Inhibition at 100 uM Casp4
T3 construct: mixing the compounds with the respective active caspases; purchased BioVision K154-100
T3 sequence (P49662 81-270 limits assumed): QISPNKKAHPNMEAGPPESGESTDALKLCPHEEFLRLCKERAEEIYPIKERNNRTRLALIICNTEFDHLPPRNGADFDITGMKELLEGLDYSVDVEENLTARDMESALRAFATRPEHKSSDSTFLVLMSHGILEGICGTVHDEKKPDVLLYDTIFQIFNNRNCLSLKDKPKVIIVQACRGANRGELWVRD
T3 sequence (P49662 290-377 limits assumed): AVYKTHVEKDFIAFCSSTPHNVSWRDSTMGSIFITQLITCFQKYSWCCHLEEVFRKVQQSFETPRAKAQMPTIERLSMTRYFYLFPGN
Method: as §1, §2, §3, §4

Caspase-3 = molecular target: T4, Caspase-3 (Homo sapiens, UniProt P42574); assay: Caspase-3 inhibitor screening assay (BioVision kit, DEVD-AFC); settings: for inhibition at 10 µM: read-out: % Inhibition at 10 uM Casp3; for inhibition at 100 µM: read-out: % Inhibition at 100 uM Casp3
T4 construct: mixing the compounds with the respective active caspases; purchased BioVision K153-100
T4 sequence (P42574 29-175 limits assumed): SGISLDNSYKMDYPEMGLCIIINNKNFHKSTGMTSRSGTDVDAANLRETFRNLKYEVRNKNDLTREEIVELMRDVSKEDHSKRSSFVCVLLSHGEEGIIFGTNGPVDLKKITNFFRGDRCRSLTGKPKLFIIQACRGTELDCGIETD
T4 sequence (P42574 176-277 limits assumed): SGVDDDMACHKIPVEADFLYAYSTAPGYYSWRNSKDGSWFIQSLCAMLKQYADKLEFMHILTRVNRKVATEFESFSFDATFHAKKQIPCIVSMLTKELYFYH
Method: as §1, §2, §3, §4

Caspase-9 = molecular target: T5, Caspase-9 (Homo sapiens, UniProt P55211); assay: Caspase-9 inhibitor screening assay (BioVision kit, LEHD-AFC); settings: for inhibition at 10 µM: read-out: % Inhibition at 10 uM Casp9; for inhibition at 100 µM: read-out: % Inhibition at 100 uM Casp9; for IC50: read-out: IC50 Casp9
T5 construct: purchased BioVision K159-100
T5 sequence (P55211 1-315 limits assumed): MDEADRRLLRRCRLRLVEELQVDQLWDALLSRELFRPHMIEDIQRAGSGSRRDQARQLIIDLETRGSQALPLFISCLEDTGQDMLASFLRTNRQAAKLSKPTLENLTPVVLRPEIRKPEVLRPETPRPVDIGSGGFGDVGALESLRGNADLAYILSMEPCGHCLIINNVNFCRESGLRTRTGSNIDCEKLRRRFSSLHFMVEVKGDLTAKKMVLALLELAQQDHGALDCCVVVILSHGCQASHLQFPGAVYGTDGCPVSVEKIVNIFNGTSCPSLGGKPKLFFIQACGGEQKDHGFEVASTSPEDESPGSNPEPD
T5 sequence (P55211 331-416 limits assumed): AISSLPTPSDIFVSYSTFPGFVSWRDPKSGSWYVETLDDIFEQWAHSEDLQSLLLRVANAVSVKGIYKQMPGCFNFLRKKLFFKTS
Method: as §1, §2, §3, §4

Caspase-7 = molecular target: T6, Caspase-7 (Homo sapiens, UniProt P55210); assay: Caspase-7 inhibitor screening assay (BioVision kit, DEVD-AFC); settings: for inhibition at 10 µM: read-out: % Inhibition at 10 uM Casp7; for inhibition at 100 µM: read-out: % Inhibition at 100 uM Casp7; for IC50: read-out: IC50 Casp7
T6 construct: mixing the compounds with the respective active caspases; purchased BioVision K157-100
T6 sequence (P55210 24-198 limits assumed): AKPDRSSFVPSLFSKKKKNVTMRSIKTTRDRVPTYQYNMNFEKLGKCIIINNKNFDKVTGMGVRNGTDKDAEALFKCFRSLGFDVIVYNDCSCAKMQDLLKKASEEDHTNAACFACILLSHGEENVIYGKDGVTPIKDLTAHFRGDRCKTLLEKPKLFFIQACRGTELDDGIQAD
T6 sequence (P55210 207-303 limits assumed): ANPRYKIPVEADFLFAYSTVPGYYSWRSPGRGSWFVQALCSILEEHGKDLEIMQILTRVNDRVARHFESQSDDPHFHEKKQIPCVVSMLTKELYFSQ
Method: as §1, §2, §3, §4

Row | SMILES | inhibition at 10 µM (Caspase-6) | inhibition at 100 µM (Caspase-6) | IC50 (Caspase-6; read-out: IC50 Casp6) | inhibition at 10 µM (Caspase-5) | inhibition at 100 µM (Caspase-5) | inhibition at 10 µM (Caspase-4) | inhibition at 100 µM (Caspase-4) | IC50 (Caspase-4; read-out: IC50 Casp4) | inhibition at 10 µM (Caspase-3) | inhibition at 100 µM (Caspase-3) | IC50 (Caspase-3; read-out: IC50 Casp3) | inhibition at 10 µM (Caspase-9) | inhibition at 100 µM (Caspase-9) | IC50 (Caspase-9) | inhibition at 10 µM (Caspase-7) | inhibition at 100 µM (Caspase-7) | IC50 (Caspase-7) | IC50 (Caspase-5; read-out: IC50 Casp5) | further results
1 | CC(C)(C)[C@H](NC(=O)c1ccc2ccccc2n1)C(=O)N1CCC[C@@H]1C(=O)N[C@H](/C=C/S(C)(=O)=O)CC(=O)O [Compound 6, 2-Quinoline carbonyl-t-Leu-pro-Asp methyl vinyl sulfone] | 0% | 3% | > 100 µM | 86% | 99% | 99% | 100% | 1550 nM | 1% | 1% | > 100 µM | 1% | 51% | ~100 µM | 0% | 2% | > 100 µM | – | IC50 (Caspase-5; read-out: potency (IC50) against caspase-5): 2.32 µM; IC50 (Caspase-4; read-out: potency (IC50) against caspase-4): 1550 nM
2 | CS(=O)(=O)/C=C/[C@H](CC(=O)O)NC(=O)[C@H]1CCC(=O)N1 [Compound 24, (2-Pyrrolidinone-5-carbonyl)-Asp methyl vinyl sulfone] | 0% | 0% | > 100 µM | 0% | 0% | 1% | 0% | > 100000 nM | 0% | 0% | > 100 µM | 0% | 0% | > 100 µM | 1% | 0% | > 100 µM | > 100 µM | –
3 | CCOC(=O)/C=C/[C@H](CC(=O)O)NC(=O)[C@H]1CCCN1C(=O)[C@@H](NC(=O)c1ccc(N)c(Cl)c1)C(C)(C)C [Compound 116, (4-amino-3-chlorobenzene carbonyl)-t-Leu-Pro-Asp Ethyl vinyl ester] | – | – | > 100 µM | – | – | – | – | 30 nM | – | – | 33.4 µM | – | – | 0.83 µM | – | – | 3.6 µM | 0.13 µM | –
4 | CS(=O)(=O)/C=C/[C@H](CC(=O)O)NC(=O)[C@H]1CCCN1C(=O)[C@@H](NC(=O)[C@H](CC(=O)O)NC(=O)OCc1ccccc1)c1ccccc1 [Compound 30, Z-Asp-Phenylglycine-Pro-Asp-methyl vinyl sulfone] | 0% | 2% | > 100 µM | 8% | 50% | 50% | 100% | 9940 nM | 68% | 95% | 3.4 µM | 48% | 92% | 10.8 µM | 68% | 97% | 6.12 µM | ~100 µM | IC50 (Caspase-3; read-out: potency (IC50) against caspase-3): 3.41 µM
5 | CCOC(=O)/C=C/[C@H](CC(=O)O)NC(=O)[C@@H](NC(=O)[C@H](CCC(=O)O)NC(=O)[C@@H](NC(=O)OCc1ccccc1)C(C)C)C(C)CC (stereo partly drawn) [Compound 124, Z-Val-Glu-Ile-Asp-Ethyl Vinyl ester] | – | – | 0.29 µM | – | – | – | – | 1270 nM | – | – | 0.58 µM | – | – | 7.5 µM | – | – | > 100 µM | 3.77 µM | IC50 (Caspase-6; read-out: inhibition (IC50) against Caspase-6): 0.293 µM
6 | CCOC(=O)/C=C/[C@H](CC(=O)O)NC(=O)[C@@H](NC(=O)[C@H](CCC(=O)O)NC(=O)[C@@H](NC(=O)OCc1ccccc1)C(C)C)c1ccccc1 [Compound 126, Z-Val-Glu-Phg-Asp-Ethyl Vinyl ester] | – | – | 0.48 µM | – | – | – | – | 770 nM | – | – | 2.78 µM | – | – | > 100 µM | – | – | > 100 µM | 8.58 µM | –
7 | CC(C)[C@H](NC(=O)c1ccc2ccccc2n1)C(=O)N[C@H](/C=C/S(C)(=O)=O)CC(=O)O [Compound 16, 2-Quinoline carbonyl-Val-Asp methyl vinyl sulfone] | 0% | 0% | > 100 µM | 0% | 10% | 0% | 0% | > 100000 nM | 5% | 30% | > 100 µM | 0% | 0% | > 100 µM | 3% | 19% | > 100 µM | > 100 µM | –
8 | CC(C)[C@H](NC(=O)OCc1ccccc1)C(=O)N[C@H](/C=C/S(C)(=O)=O)CC(=O)O [Compound 3, Z-Val-Asp methyl vinyl sulfone] | 0% | 0% | > 100 µM | 0% | 0% | 0% | 2% | > 100000 nM | 0% | 5% | > 100 µM | 0% | 17% | > 100 µM | 0% | 9% | > 100 µM | > 100 µM | –
